Each compound was assayed against T1, Ba/F3 cell EGFR Exon20 ins NPH (Homo sapiens, UniProt P00533, INS773NPH) (assay: Ba/F3 cell proliferation suppression, EGFR Exon20 ins NPH). Conditions: GI50 class; Ba/F3 cell line with NPH inserted at Exon20 of EGFR; 72 hours.
T1 construct: expressed in transfected cells; host or cells: Ba/F3
Type: cell-based
In short: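 72 h compound exposure, 0.3 nM–50 um (12 points, 3:1 dilution in DMSO); viability by CellTiter-Glo luminescence. Ba/F3 medium: RPMI-1640, 10% FBS, 5 ng/ml IL-3, 1 ug/ml puromycin for transduced cells. GI50 vs control, n=3.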

Row | Compound | Ba/F3 (NPH) Activity
1 | C=CC(=O)Nc1cc(Nc2cc(N3OCC[C@@H]3c3cc(F)cc(F)c3)ncn2)c(OC)cc1N1CC[C@@H](CN(C)C)C1 [compound 625, N-(5-((6-((R)-3-(3,5-difluorophenyl)isoxazolidine-2-yl)pyrimidine-4-yl)amino)-2-((S)-3-((dimethylamino)methyl)pyrolidine-1-yl)-4-methoxyphenyl) acrylamide] | A (GI50 < 50 nM)
2 | C=CC(=O)Nc1cc(Nc2cc(N3OCC[C@@H]3c3cc(F)cc(F)c3)ncn2)c(OC)cc1N1CC[C@@H](N2CCOCC2)C1 [Example 271, N-(5-((6-((R)-3-(3,5-difluorophenyl)isoxazolidine-2-yl)pyrimidine-4-yl)amino)-4-methoxy-2-((R)-3-morpholinopyrolidine-1-yl)phenyl)acrylamide] | B (50 nM ≤ GI50 < 500 nM)
3 | C=CC(=O)Nc1cc(Nc2cc(N3OCCC3(C)c3ccccc3)ncn2)c(OC)cc1N1CCC(N2CCN(CC)CC2)CC1 (stereo not drawn) [Example 261, N-(2-(4-(4-ethylpiperazine-1-yl)piperidine-1-yl)-4-methoxy-5-((6-(3-methyl-3-phenylisoxazolidine-2-yl)pyrimidine-4-yl)amino)phenyl) acrylamide] | C (500 nM ≤ GI50 < 5000 nM)
4 | C=CC(=O)Nc1cc(Nc2cc(N3OCC[C@@H]3Cc3ccccc3)ncn2)c(OC)cc1N1CCN(C(C)C)CC1 [compound 954, N-(5-((6-((S)-3-benzylisoxazolidine-2-yl)pyrimidine-4-yl)amino)-2-(4-isopropylpiperazine-1-yl)-4-methoxyphenyl) acrylamide] | A (GI50 < 50 nM)
5 | C=CC(=O)Nc1cc(Nc2cc(N3OCC[C@@H]3c3cccc(C)c3F)ncn2)c(OC)cc1N1CCC(N2CCN(C3CCC3)CC2)CC1 [Example 78, N-(2-(4-(4-cyclobutylpiperazine-1-yl)piperidine-1-yl)-5-((6-((R)-3-(2-fluoro-3-methylphenyl)isoxazolidine-2-yl)pyrimidine-4-yl)amino)-4-methoxyphenyl) acrylamide] | A (GI50 < 50 nM)
6 | C=CC(=O)Nc1cc(Nc2cc(N3OCC[C@@H]3c3ccc(F)cc3F)ncn2)c(OC)cc1N1CC[C@@H](N(C)C)C1 [compound 376, N-(5-((6-((R)-3-(2,4-difluorophenyl)isoxazolidine-2-yl)pyrimidine-4-yl)amino)-2-((R)-3-(dimethylamino)pyrolidine-1-yl)-4-methoxyphenyl) acrylamide] | A (GI50 < 50 nM)
7 | C=CC(=O)Nc1cc(Nc2cc(N3OCC[C@@H]3c3ccc(F)c(F)c3F)ncn2)c(OC)cc1N1CC[C@H](N2CCOCC2)C1 [compound 624, N-(4-methoxy-2-((S)-3-morpholinopyrolidine-1-yl)-5-((6-((R)-3-(2,3,4-trifluorophenyl)isoxazolidine-2-yl)pyrimidine-4-yl)amino)phenyl)acrylamide] | C (500 nM ≤ GI50 < 5000 nM)
8 | C=CC(=O)Nc1cc(Nc2cc(N3OCC[C@@H]3Cc3cccc(N(C)C)c3)ncn2)c(OC)cc1N1CCC(N2C[C@H]3C[C@@H]2CO3)CC1 [compound 1047, N-(2-(4-((1R,4R)-2-oxa-5-azabicyclo [2.2.1]heptane-5-yl)piperidine-1-yl)-5-((6-((S)-3-(3-(dimethylamino)benzyl)isoxazolidine-2-yl)pyrimidine-4-yl)amino)-4-methoxyphenyl) acrylamide] | B (50 nM ≤ GI50 < 500 nM)
9 | C=CC(=O)Nc1cc(Nc2cc(N3OCC[C@@H]3c3ccc(Cl)cc3F)ncn2)c(OC)cc1N1CC[C@H](N2CCOCC2)C1 [compound 407, N-(5-((6-((R)-3-(4-chloro-2-fluorophenyl)isoxazolidine-2-yl)pyrimidine-4-yl)amino)-4-methoxy-2-((S)-3-morpholinopyrolidine-1-yl)phenyl)acrylamide] | B (50 nM ≤ GI50 < 500 nM)

Reference: patent US12157730B2, “Heteroaryl derivative, method for producing same, and pharmaceutical composition comprising same as effective component” (VORONOI INC., priority 2019, dated 2024)
